According to patent EP1801112A1, “Bicyclic pyrimidines and bicyclic 3,4-dihydropyrimidines as inhibitors of cellular proliferation” (Warner-Lambert Company LLC, priority 1998, dated 1999):
Where two headings read alike, the source gives them in different places.

What was measured:
Format in all cases: biochemical
cdk4/D = cdk4/D (Homo sapiens, UniProt P11802); assay: Cyclin-Dependent Kinase 4 (cdk4) Assay
Method: A typical assay, for instance, measures inhibitory activity against the cyclin D dependent kinase 4 enzyme (cdk4/D). […] The cdk4 assay was carried out as follows.
Cyclin-Dependent Kinase 4 (cdk4) Assay
Enzyme assays for IC50 determinations (Tables 1 and 2) and kinetic evaluation were performed in 96 well filter plates (Millipore MADVN6550). The total volume was 0.1 mL containing a final concentration of 20 mM TRIS (tris[hydroxymethyl]aminomethane), at pH 7.4, 50 mM NaCl, 1 mM dithiothreitol, 10 mM MgCl2, 25 µM ATP containing 0.25 µCi of [^32P]ATP, 20 ng of cdk4, 1 µg of retinoblastoma, and appropriate dilutions of a compound of the present invention. All components except the ATP were added to the wells, and the plate was placed on a plate mixer for 2 minutes. The reaction was started by adding [^32P]ATP and the plate was incubated at 25°C for 15 minutes. The reaction was terminated by addition of 0.1 mL of 20% trichloroacetic acid (TCA). The plate was kept at 4°C for at least 1 hour to allow the substrate to precipitate. The wells were then washed five times with 0.2 mL of 10% TCA and ^32P incorporation was determined with a beta plate counter (Wallac Inc., Gaithersburg, MD).

[1] = target: T1, FGF-1 (flg) receptor tyrosine kinase (Homo sapiens, UniProt P11362); assay: FGF Receptor Tyrosine Kinase Assay; conditions: glutamate-tyrosine co-polymer substrate, 50 µM ATP
T1 construct: amplify a fragment of DNA that codes for the intracellular tyrosine kinase domain; made in house; host or cells: SF9 insect cells (baculovirus); crude cell lysate used
T1 sequence (P11362 478-767 limits assumed): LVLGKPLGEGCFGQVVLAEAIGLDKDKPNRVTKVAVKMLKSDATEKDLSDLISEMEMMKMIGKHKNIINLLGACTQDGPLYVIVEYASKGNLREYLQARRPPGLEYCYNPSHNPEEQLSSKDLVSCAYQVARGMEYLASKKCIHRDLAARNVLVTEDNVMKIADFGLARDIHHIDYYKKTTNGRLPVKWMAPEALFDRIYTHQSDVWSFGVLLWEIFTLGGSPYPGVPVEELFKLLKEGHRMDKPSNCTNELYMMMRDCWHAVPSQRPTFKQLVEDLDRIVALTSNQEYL
Method: PDGF and FGF Receptor Tyrosine Kinase Assays
PCR primers were designed to amplify a fragment of DNA that codes for the intracellular tyrosine kinase domain. The fragment was inserted into a baculovirus vector, cotransfected with AcMNPV DNA, and the recombinant virus isolated. SF9 insect cells were infected with the virus to overexpress the protein, and the cell lysate was used for the assay. Assays were performed in 96-well plates (100 µL/incubation/well), and conditions were optimized to measure the incorporation of ^32P from γ^32P-ATP into a glutamate-tyrosine co-polymer substrate. Briefly, to each well was added 82.5 µL of incubation buffer containing 25 mM Hepes (pH 7.0), 150 mM NaCl, 0.1% Triton X-100, 0.2 mM PMSF, 0.2 mM Na3VO4, 10 mM MnCl2, and 750 µg/mL of Poly (4:1) glutamate-tyrosine followed by 2.5 µL of inhibitor and 5 µL of enzyme lysate (7.5 µg/µL FGF-TK or 6.0 µg/µL PDGF-TK) to initiate the reaction. […] The reaction was terminated by the addition of 100 µL of 30% trichloroacetic acid (TCA) containing 20 mM sodium pyrophosphate and precipitation of material onto glass fiber mats (Wallac). […] Nonspecific activity was defined as radioactivity retained on the filters following incubation of samples with buffer alone (no enzyme). Specific enzymatic activity (enzyme plus buffer) was defined as total activity minus nonspecific activity. […]

cdk2/cyclinE = cdk2/cyclinE (Homo sapiens, UniProt P24941); assay: Cyclin-Dependent Kinase Assay cdk2/cyclinE
Method: (§1) Cyclin-Dependent Kinase Assays (cdk2/cyclinE, cdk2/cyclinA, cdc2/cyclinB)
(§2) All components except the ATP were added to the wells, and the plate was placed on a plate mixer for 2 minutes. The reaction was begun by addition of [^32P]ATP, and the plate was incubated at 25°C for 15 minutes. The reaction was terminated by addition of 0.1 mL of 20% TCA. The plate was kept at 4°C for at least 1 hour to allow the substrate to precipitate. The wells were then washed five times with 0.2 mL of 10% TCA and ^32P incorporation determined with a beta plate counter (Wallac Inc., Gaithersburg, MD).

cdk2/cyclinA = cdk2/cyclinA (Homo sapiens, UniProt P24941); assay: Cyclin-Dependent Kinase Assay cdk2/cyclinA
Method: as §1, §2

cdc2/cyclinB = cdc2/cyclinB (Homo sapiens, UniProt P06493); assay: Cyclin-Dependent Kinase Assay cdc2/cyclinB
cdc2/cyclinB, sequence (P06493 whole entry): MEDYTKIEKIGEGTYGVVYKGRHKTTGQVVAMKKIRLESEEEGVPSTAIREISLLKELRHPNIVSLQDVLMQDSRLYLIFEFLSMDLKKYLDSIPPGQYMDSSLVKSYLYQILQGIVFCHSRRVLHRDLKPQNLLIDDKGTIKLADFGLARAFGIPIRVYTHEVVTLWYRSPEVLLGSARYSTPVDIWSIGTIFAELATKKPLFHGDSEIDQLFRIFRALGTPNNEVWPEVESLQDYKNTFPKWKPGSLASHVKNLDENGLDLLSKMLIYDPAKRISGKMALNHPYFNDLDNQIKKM
cdc2/cyclinB, sequence (P14635 whole entry, further chain): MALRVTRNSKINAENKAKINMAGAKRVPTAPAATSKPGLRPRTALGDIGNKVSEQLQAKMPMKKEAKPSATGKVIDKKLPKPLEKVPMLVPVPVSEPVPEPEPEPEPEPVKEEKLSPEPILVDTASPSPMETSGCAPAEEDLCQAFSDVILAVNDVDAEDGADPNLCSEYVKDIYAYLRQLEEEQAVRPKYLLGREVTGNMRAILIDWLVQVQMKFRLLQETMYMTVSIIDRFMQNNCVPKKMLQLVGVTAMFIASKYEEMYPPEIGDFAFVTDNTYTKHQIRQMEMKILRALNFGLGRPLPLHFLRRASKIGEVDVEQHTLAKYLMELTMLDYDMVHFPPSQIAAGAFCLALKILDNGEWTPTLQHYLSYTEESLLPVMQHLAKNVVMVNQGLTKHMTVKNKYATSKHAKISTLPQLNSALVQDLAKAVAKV
Method: as §1, §2

[2] = 25 µM ATP, retinoblastoma substrate, read-out: IC50 (µM) cdk4/D
[3] = retinoblastoma substrate, read-out: IC50 (µM) cdk2/E
[4] = retinoblastoma substrate, read-out: IC50 (µM) cdk2/A
[5] = retinoblastoma substrate, read-out: IC50 (µM) cdkl/B

cdk4/D, sequence (P11802 whole entry): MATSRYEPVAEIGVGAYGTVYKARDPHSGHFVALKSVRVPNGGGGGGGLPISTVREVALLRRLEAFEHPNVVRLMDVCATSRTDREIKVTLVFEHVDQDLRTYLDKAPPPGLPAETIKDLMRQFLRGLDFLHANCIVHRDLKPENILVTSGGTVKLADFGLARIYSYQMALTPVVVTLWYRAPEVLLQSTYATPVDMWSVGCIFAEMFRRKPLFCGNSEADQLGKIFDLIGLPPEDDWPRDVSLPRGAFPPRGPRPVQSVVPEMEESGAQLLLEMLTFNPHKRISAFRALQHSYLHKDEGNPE
cdk4/D, sequence (P24385 whole entry, further chain): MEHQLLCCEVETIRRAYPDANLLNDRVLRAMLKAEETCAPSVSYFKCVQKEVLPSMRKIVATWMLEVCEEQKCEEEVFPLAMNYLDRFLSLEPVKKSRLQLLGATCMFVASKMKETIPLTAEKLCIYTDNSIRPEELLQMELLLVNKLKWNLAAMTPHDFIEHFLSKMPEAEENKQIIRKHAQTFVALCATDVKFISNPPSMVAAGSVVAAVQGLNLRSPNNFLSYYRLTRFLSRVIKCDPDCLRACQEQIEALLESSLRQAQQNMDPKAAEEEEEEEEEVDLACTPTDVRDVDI

SMILES	IC50 (cdk4/D)	IC50 (cdk2/cyclinE)	IC50 (cdk2/cyclinA)	IC50 (cdc2/cyclinB)	further results
COc1ccc(Nc2ncc3c(n2)N(C2CCCC2)C(=O)NC3)cc1 [Example 9, 1-Cyclopentyl-7-(4-methoxyphenylamino)-3,4-dihydro-pyrimido[4,5-d]pyrimidin-2(1H)-one]	5.75 µM				IC50 [1]: 0.36 µM
CCN(CC)CCOc1ccc(Nc2ncc3c(n2)N(C2CCCC2)C(=O)NC3)cc1C [Example 13, 1-Cyclopentyl-7-{3-methyl-4-[2-(diethylamino)ethoxy]phenylamino}-3,4-dihydro-pyrimido[4,5-d]pyrimidin-2(1H)-one]	0.3 µM				IC50 [1]: 0.05 to 0.5 µM
O=C1NCc2cnc(Nc3ccc(N4CCC(CCCO)CC4)cc3)nc2N1C1CCCC1 [Example 20, 1-Cyclopentyl-7-{4-[4-(3-hydroxypropyl)piperidin-1-yl]phenylamino}-3,4-dihydro-pyrimido[4,5-d]pyrimidin-2(1H)-one]	0.42 µM	5.35 µM	2.72 µM	> 40 µM	
CC(C)N1C(=O)NCc2cnc(Nc3ccc(N4CCC(O)CC4)cc3)nc21 [Example 23, 7-[4-(4-Hydroxypiperidin-1-yl)phenylamino]-1-isopropyl-3,4-dihydropyrimido[4,5-d]pyrimidin-2(1H)-one]		16.8 µM	4.39 µM	> 40 µM	
CC(C)N1C(=O)NCc2cnc(Nc3ccc(N4CCC(N(C)C)CC4)cc3)nc21 [Example 24, 7-{4-[4-(Dimethylamino)piperidin-1-yl]phenylamino}-1-isopropyl-3,4-dihydro-pyrimido[4,5-d]pyrimidin-2(1H)-one; compound with trifluoroacetic acid]		34 µM	12.3 µM	> 40 µM	
CC(C)N1C(=O)NCc2cnc(Nc3ccc(-n4cccn4)cc3)nc21 [Example 25, 1-Isopropyl-7-[4-(pyrazol-1-yl)phenylamino]-3,4-dihydro-pyrimido[4,5-d]pyrimidin-2(1H)-one; compound with trifluoroacetic acid]		10 µM	2.31 µM	36.5 µM	
CC(C)N1C(=O)NCc2cnc(Nc3ccc(N4CCC(CCCN5CCOCC5)CC4)cc3)nc21 [Example 26, 1-Isopropyl-7-{4-[4-(3-(morpholin-1-yl)propyl)piperidin-1-yl]phenylamino}-3,4-dihydro-pyrimido[4,5-d]pyrimidin-2(1H)-one]					inhibition at 40 µM (cdk4/D; read-out: % Inhibition at 40 µM cdk4/D): 47%
CN1CCN(c2ccc(Nc3ncc4c(n3)N(C)C(=O)NC4)cc2)CC1 [Example 28, 1-Methyl-7-[4-(4-methylpiperazin-1-yl)phenylamino]-3,4-dihydropyrimido[4,5-d]pyrimidin-2(1H)-one; compound with trifluoroacetic acid]			> 40 µM	> 40 µM	
CN1C(=O)NCc2cnc(Nc3ccc(N4CCC(O)CC4)cc3)nc21 [Example 29, 7-[4-(4-Hydroxypiperidin-1-yl)phenylamino]-1-methyl-3,4-dihydropyrimido[4,5-d]pyrimidin-2(1H)-one; compound with trifluoroacetic acid]	> 40 µM		> 40 µM	> 40 µM	
CN1C(=O)NCc2cnc(Nc3ccc(N4CCC(N(C)C)CC4)cc3)nc21 [Example 30, 7-{4-[4-(Dimethylamino)piperidin-1-yl]phenylamino}-1-methyl-3,4-dihydropyrimido[4,5-d]pyrimidin-2(1H)-one; compound with trifluoroacetic acid]	18.2 µM		> 40 µM	> 40 µM	
CN1C(=O)NCc2cnc(Nc3ccc(-n4cccn4)cc3)nc21 [Example 31, 1-Methyl-7-[4-(pyrazol-1-yl)phenylamino]-3,4-dihydro-pyrimido[4,5-d]pyrimidin-2(1H)-one; compound with trifluoroacetic acid]			> 40 µM	> 40 µM	
O=c1ncc2cnc(Nc3ccc(N4CCC(O)CC4)cc3)nc2n1C1CCCC1 [Example 33, 1-Cyclopentyl-7-[4-(4-hydroxypiperidin-1-yl)phenylamino]pyrimido[4,5-d]pyrimidin-2(1H)-one]					IC50 (cdk4/D; [2]): 0.038 µM; IC50 (cdk2/cyclinE; [3]): 4.2 µM; IC50 (cdk2/cyclinA; [4]): 0.98 µM; IC50 (cdc2/cyclinB; [5]): 9.76 µM
CCN(CC)CCOc1ccc(Nc2ncc3cnc(=O)n(C4CCCC4)c3n2)cc1C [Example 34, 1-Cyclopentyl-7-{3-methyl-4-[2-(diethylamino)ethoxy]-phenylamino}pyrimido[4,5-d]pyrimidin-2(1H)-one]	0.079 µM	3.15 µM	3.22 µM	7.51 µM	
COc1ccc(Nc2ncc3cnc(=O)n(C4CCCC4)c3n2)cc1 [Example 37, 1-Cyclopentyl-7-(4-methoxyphenylamino)pyrimido[4,5-d]pyrimidin-2(1H)-one]	0.22 µM	0.9 µM	0.4 µM	4.76 µM	
O=c1ncc2cnc(Nc3ccc(N4CCCCC4)cc3)nc2n1C1CCCC1 [Example 38, 1-Cyclopentyl-7-[4-(piperidin-1-yl)phenylamino]pyrimido[4,5-d]pyrimidin-2(1H)-one]					IC50 (cdk4/D; [2]): 0.15 µM; IC50 (cdk2/cyclinE; [3]): 2.78 µM; IC50 (cdk2/cyclinA; [4]): 0.77 µM; IC50 (cdc2/cyclinB; [5]): 35.2 µM
CC(C)n1c(=O)ncc2cnc(Nc3ccc(-n4cccn4)cc3)nc21 [Example 42, 1-Isopropyl-7-[4-(pyrazol-1-yl)phenylamino]pyrimido[4,5-d]pyrimidin-2(1H)-one]	3.9 µM	> 40 µM	5.81 µM	> 40 µM	
CN1CCN(c2ccc(Nc3ncc4cnc(=O)n(C)c4n3)cc2)CC1 [Example 45, 1-Methyl-7-[4-(4-methylpiperazin-1-yl)phenylamino]pyrimido[4,5-d]pyrimidin-2(1H)-one]	16.2 µM		> 40 µM	> 40 µM	
CN(C)C1CCN(c2ccc(Nc3ncc4cnc(=O)n(C)c4n3)cc2)CC1 [Example 46, 7-{4-[4-(Dimethylamino)piperidin-1-yl]phenylamino}-1-methyl-pyrimido[4,5-d]pyrimidin-2(1H)-one]	> 40 µM		> 40 µM	> 40 µM	IC50 [1]: 22.6 µM
Cn1c(=O)ncc2cnc(Nc3ccc(-n4cccn4)cc3)nc21 [Example 47, 1-Methyl-7-[4-(pyrazol-1-yl)phenylamino]pyrimido[4,5-d]pyrimidin-2(1H)-one]	> 40 µM		> 40 µM	> 40 µM	
